# From the supplement of paper PMC13380429
# What was measured:
# Conditions in all cases: 72 h
# Caco-2 [1] = assay: cell viability relative to DMSO; higher = less toxic
# Calu-3 [2] = assay: as above
# HepG2 [3] = assay: as above
# U2OS [4] = assay: as above
# Vero E6 [5] = assay: as above
# Caco-2 [6] = assay: relative viability EC50 (midpoint between 100% and the lowest measured viability); higher = less toxic
# Calu-3 [7] = assay: as above
# HepG2 [8] = assay: as above
# U2OS [9] = assay: as above
# Vero E6 [10] = assay: as above
# Caco-2 [11] = assay: drug sensitivity score (DSS) for viability; higher = more toxic; extreme values may be limits of the assay
# Calu-3 [12] = assay: as above
# HepG2 [13] = assay: as above
# U2OS [14] = assay: as above
# Vero E6 [15] = assay: as above
Structure (SMILES),cell viability (Caco-2 [1]; 1 nM) [%],cell viability (Caco-2 [1]; 10 nM) [%],cell viability (Caco-2 [1]; 100 nM) [%],cell viability (Caco-2 [1]; 1000 nM) [%],cell viability (Caco-2 [1]; 10000 nM) [%],cell viability (Calu-3 [2]; 1 nM) [%],cell viability (Calu-3 [2]; 10 nM) [%],cell viability (Calu-3 [2]; 100 nM) [%],cell viability (Calu-3 [2]; 1000 nM) [%],cell viability (Calu-3 [2]; 10000 nM) [%],cell viability (HepG2 [3]; 1 nM) [%],cell viability (HepG2 [3]; 10 nM) [%],cell viability (HepG2 [3]; 100 nM) [%],cell viability (HepG2 [3]; 1000 nM) [%],cell viability (HepG2 [3]; 10000 nM) [%],cell viability (U2OS [4]; 1 nM) [%],cell viability (U2OS [4]; 10 nM) [%],cell viability (U2OS [4]; 100 nM) [%],cell viability (U2OS [4]; 1000 nM) [%],cell viability (U2OS [4]; 10000 nM) [%],cell viability (Vero E6 [5]; 1 nM) [%],cell viability (Vero E6 [5]; 10 nM) [%],cell viability (Vero E6 [5]; 100 nM) [%],cell viability (Vero E6 [5]; 1000 nM) [%],cell viability (Vero E6 [5]; 10000 nM) [%],relative viability EC50 (Caco-2 [6]) [µM],relative viability EC50 (Calu-3 [7]) [µM],relative viability EC50 (HepG2 [8]) [µM],relative viability EC50 (U2OS [9]) [µM],relative viability EC50 (Vero E6 [10]) [µM],drug sensitivity score (Caco-2 [11]),drug sensitivity score (Calu-3 [12]),drug sensitivity score (HepG2 [13]),drug sensitivity score (U2OS [14]),drug sensitivity score (Vero E6 [15])
OCCN1CCN(CCCN2c3ccccc3C=Cc3ccccc32)CC1 [opipramol],89.8,102,88.6,100,76.6,100,93.3,99.7,100,98,107,104,98,91.4,92.1,97.6,95.6,101,103,97,107,99.8,104,98.5,83.9,> 10,> 10,> 10,> 10,> 10,0.8,0,0,0,0.5
Cc1cnc(C(=O)N[C@H]2CCCCC/C=C\[C@@H]3C[C@@]3(C(=O)NS(=O)(=O)C3CC3)NC(=O)[C@@H]3C[C@@H](Oc4nc5ccccc5c5ccccc45)CN3C2=O)cn1 [paritaprevir],110,94.8,103,95,99.1,110,108,107,99.9,102,108,96.8,105,94.7,109,105,105,107,94.8,96.4,99.8,93.9,97,94,98.8,> 10,> 10,> 10,> 10,> 10,0,0,0,0,0
CCOc1ccc(NC(C)=O)cc1 [phenacetin],105,81.8,101,110,85.9,90.3,90.8,99.5,94.3,104,95.8,77.6,90.8,93.7,84.1,100,94.6,90.2,90.3,97.8,109,102,108,96,102,> 10,> 10,> 10,> 10,> 10,0.1,0,0,0,0
O=S1(=O)OC(c2ccc(O)cc2)(c2ccc(O)cc2)c2ccccc21 [phenolsulfonphthalein],102,108,96.1,93.7,87.9,108,104,83.5,110,93.2,99.3,94.5,99.3,99.6,93.5,99.5,104,98,103,96.4,105,102,100,93.8,100,> 10,> 10,> 10,> 10,> 10,0.1,0,0,0,0
O=C(O)CCCc1ccccc1 [phenylbutyrate],79.8,100,90.4,97,107,94.6,112,113,109,105,111,81.8,105,104,96.1,99.9,105,104,103,103,106,95.6,104,93.2,106,> 10,> 10,> 10,> 10,> 10,0,0,0,0,0
CC(=O)NS(=O)(=O)c1ccc(NC(=O)c2ccccc2C(=O)O)cc1 [phthalylsulfacetamide],91.3,98.4,94.2,96.4,94.3,100,102,96.8,108,101,102,104,91.6,105,101,98.8,94.6,103,99.2,102,102,109,98.2,104,102,> 10,> 10,> 10,> 10,> 10,0,0,0,0,0
COc1ccc(C(=O)NCc2cccnc2)cc1C(=O)NCc1cccnc1 [picotamide],101,87.9,87,120,98.6,97.3,97.8,103,102,111,102,99.5,120,119,97,97.9,95,92.8,101,105,99.7,101,109,98.7,103,> 10,> 10,> 10,> 10,> 10,0,0,0,0,0
